# Article PMC5218480 (PLoS ONE, 2017)
# Test system: MV-4-11 cells
# Assay: Gene expression microarray analysis (Affymetrix PrimeView) and GSEA
# Format: cell-based, human
# Parameters: RFU PODN (11730768_x_at) / Fold change /veh PODN (11730768_x_at) / RFU LINC00158 (11744669_a_at) / Fold change /veh LINC00158 (11744669_a_at) / RFU DUSP10 (11751237_a_at) / Fold change /veh DUSP10 (11751237_a_at) / RFU ID3 (11757404_x_at) / Fold change /veh ID3 (11757404_x_at) / RFU PLEKHG5 (11737974_s_at) / Fold change /veh PLEKHG5 (11737974_s_at) / RFU LRRC4B (11730491_at) / Fold change /veh LRRC4B (11730491_at) / RFU GIMAP4 (11747438_a_at) / Fold change /veh GIMAP4 (11747438_a_at) / RFU KRT8 (11758183_x_at) / Fold change /veh KRT8 (11758183_x_at) / RFU CNN1 (11734310_a_at) / Fold change /veh CNN1 (11734310_a_at) / RFU VPS37D (11726825_at) / Fold change /veh VPS37D (11726825_at) / RFU C10orf10 (11716522_x_at) / Fold change /veh C10orf10 (11716522_x_at) / RFU KIR2DL2 /// KIR2DL4 /// KIR2DL5A /// KIR2DL5B /// KIR2DS1 /// KIR2DS2 /// KIR2DS3 /// KIR2DS4 /// KIR3DL3 /// KIR3DL3 /// KIR3DS1 (11738374_at) / Fold change /veh KIR2DL2 /// KIR2DL4 /// KIR2DL5A /// KIR2DL5B /// KIR2DS1 /// KIR2DS2 /// KIR2DS3 /// KIR2DS4 /// KIR3DL3 /// KIR3DL3 /// KIR3DS1 (11738374_at) / RFU C1QL1 (11718748_at) / Fold change /veh C1QL1 (11718748_at) / RFU TMPRSS4 (11747572_a_at) / Fold change /veh TMPRSS4 (11747572_a_at) / RFU HAMP (11756126_x_at) / Fold change /veh HAMP (11756126_x_at) / RFU RNFT2 (11725882_a_at) / Fold change /veh RNFT2 (11725882_a_at) / RFU NR4A2 (11747474_a_at) / Fold change /veh NR4A2 (11747474_a_at) / RFU ABCC12 (11746883_a_at) / Fold change /veh ABCC12 (11746883_a_at) / RFU TMEM136 (11760407_x_at) / Fold change /veh TMEM136 (11760407_x_at) / RFU CLDN22 /// WWC2 (11732394_at) / Fold change /veh CLDN22 /// WWC2 (11732394_at) / RFU HLA-DPB1 (11760878_x_at) / Fold change /veh HLA-DPB1 (11760878_x_at) / RFU SPINT1 (11716480_a_at) / Fold change /veh SPINT1 (11716480_a_at) / RFU GAP43 (11754022_s_at) / Fold change /veh GAP43 (11754022_s_at) / RFU A4GNT (11735810_at) / Fold change /veh A4GNT (11735810_at) / RFU PRB3 (11715151_x_at) / Fold change /veh PRB3 (11715151_x_at) / RFU TUBB4B (11761932_at) / Fold change /veh TUBB4B (11761932_at) / RFU CAPN14 (11732068_a_at) / Fold change /veh CAPN14 (11732068_a_at) / RFU TMCC2 (11721928_a_at) / Fold change /veh TMCC2 (11721928_a_at) / RFU IRGQ (11745062_a_at) / Fold change /veh IRGQ (11745062_a_at) / RFU FAM174B (11720279_a_at) / Fold change /veh FAM174B (11720279_a_at) / RFU TMPRSS4 (11748680_a_at) / Fold change /veh TMPRSS4 (11748680_a_at) / RFU FAM212B (11763350_a_at) / Fold change /veh FAM212B (11763350_a_at) / RFU PLEKHG5 (11743358_a_at) / Fold change /veh PLEKHG5 (11743358_a_at) / RFU ZSCAN30 (11745921_a_at) / Fold change /veh ZSCAN30 (11745921_a_at) / RFU CMKLR1 (11741424_a_at) / Fold change /veh CMKLR1 (11741424_a_at) / RFU LOC101060620 /// MAPK8IP1 (11723275_at) / Fold change /veh LOC101060620 /// MAPK8IP1 (11723275_at) / RFU SPTSSB (11747773_x_at) / Fold change /veh SPTSSB (11747773_x_at) / RFU PRSS12 (11739890_at) / Fold change /veh PRSS12 (11739890_at) / RFU BIN1 (11741810_x_at) / Fold change /veh BIN1 (11741810_x_at) / RFU WNT11 (11732464_a_at) / Fold change /veh WNT11 (11732464_a_at) / RFU C10orf10 (11716521_a_at) / Fold change /veh C10orf10 (11716521_a_at) / RFU C5orf56 (11738089_at) / Fold change /veh C5orf56 (11738089_at) / RFU CYB561 (11721691_x_at) / Fold change /veh CYB561 (11721691_x_at) / RFU ANKRD19P (11752326_a_at) / Fold change /veh ANKRD19P (11752326_a_at) / RFU OR2T12 /// OR2T33 /// OR2T8 (11738714_s_at) / Fold change /veh OR2T12 /// OR2T33 /// OR2T8 (11738714_s_at) / RFU VCAN (11748164_a_at) / Fold change /veh VCAN (11748164_a_at) / RFU JSRP1 (11732532_at) / Fold change /veh JSRP1 (11732532_at) / RFU KRTAP10-11 (11738290_x_at) / Fold change /veh KRTAP10-11 (11738290_x_at) / RFU MYO3A (11730013_a_at) / Fold change /veh MYO3A (11730013_a_at) / RFU EBF3 (11725865_a_at) / Fold change /veh EBF3 (11725865_a_at) / RFU CAMK2N1 (11719241_x_at) / Fold change /veh CAMK2N1 (11719241_x_at) / RFU C5orf56 (11738088_a_at) / Fold change /veh C5orf56 (11738088_a_at) / RFU OLFML3 (11715873_a_at) / Fold change /veh OLFML3 (11715873_a_at) / RFU LOC100653217 /// NTM (11731650_a_at) / Fold change /veh LOC100653217 /// NTM (11731650_a_at) / RFU MAPK11 (11762145_a_at) / Fold change /veh MAPK11 (11762145_a_at) / RFU FIZ1 (11724087_x_at) / Fold change /veh FIZ1 (11724087_x_at) / RFU OASL (11726364_x_at) / Fold change /veh OASL (11726364_x_at) / RFU SOX15 (11748057_x_at) / Fold change /veh SOX15 (11748057_x_at) / RFU CD79A (11719716_a_at) / Fold change /veh CD79A (11719716_a_at) / RFU HIST1H1D (11736915_at) / Fold change /veh HIST1H1D (11736915_at) / RFU CASKIN2 (11723855_a_at) / Fold change /veh CASKIN2 (11723855_a_at) / RFU LOC730098 (11760151_x_at) / Fold change /veh LOC730098 (11760151_x_at) / RFU OR4N2 (11742367_at) / Fold change /veh OR4N2 (11742367_at) / RFU PRRT2 (11749266_a_at) / Fold change /veh PRRT2 (11749266_a_at) / RFU SNX32 (11753110_a_at) / Fold change /veh SNX32 (11753110_a_at) / RFU CDHR5 (11726645_a_at) / Fold change /veh CDHR5 (11726645_a_at) / RFU RCAN1 (11760418_a_at) / Fold change /veh RCAN1 (11760418_a_at) / RFU FAM167A (11723789_a_at) / Fold change /veh FAM167A (11723789_a_at) / RFU FAM26E (11764081_at) / Fold change /veh FAM26E (11764081_at) / RFU ISYNA1 (11749810_s_at) / Fold change /veh ISYNA1 (11749810_s_at) / RFU ACY1 (11761880_at) / Fold change /veh ACY1 (11761880_at) / RFU 11764098_at / Fold change /veh 11764098_at / RFU SAMD14 (11745864_x_at) / Fold change /veh SAMD14 (11745864_x_at) / RFU NPB (11741838_a_at) / Fold change /veh NPB (11741838_a_at) / RFU TMPRSS6 (11731388_a_at) / Fold change /veh TMPRSS6 (11731388_a_at) / RFU KRTAP10-2 (11738614_at) / Fold change /veh KRTAP10-2 (11738614_at) / RFU ARHGAP8 /// PRR5-ARHGAP8 (11727945_x_at) / Fold change /veh ARHGAP8 /// PRR5-ARHGAP8 (11727945_x_at) / RFU KRTAP5-7 /// NADSYN1 (11734609_at) / Fold change /veh KRTAP5-7 /// NADSYN1 (11734609_at) / RFU RASL12 (11751679_a_at) / Fold change /veh RASL12 (11751679_a_at) / RFU CDKN2B (11736163_a_at) / Fold change /veh CDKN2B (11736163_a_at) / RFU PRF1 (11729649_at) / Fold change /veh PRF1 (11729649_at) / RFU, ZNF638 /// ZNF638-IT1 / Fold change vs veh, ZNF638 /// ZNF638-IT1 / RFU, PANK3 / Fold change vs veh, PANK3 / RFU, SH3YL1 / Fold change vs veh, SH3YL1 / RFU, ZEB2 / Fold change vs veh, ZEB2 / RFU, NRIP1 / Fold change vs veh, NRIP1 / RFU, PTTG1IP / Fold change vs veh, PTTG1IP / RFU, CAPN2 / Fold change vs veh, CAPN2 / RFU, MED14 / Fold change vs veh, MED14 / RFU, SNORA58 / Fold change vs veh, SNORA58 / RFU, C1orf63 / Fold change vs veh, C1orf63 / RFU, LRRFIP1 / Fold change vs veh, LRRFIP1 / RFU, NDUFAF7 / Fold change vs veh, NDUFAF7 / RFU, SLC12A2 / Fold change vs veh, SLC12A2 / RFU, IBTK / Fold change vs veh, IBTK / RFU, ESF1 / Fold change vs veh, ESF1 / Fold change vs veh, TMEM50B / RFU, TAOK1 / Fold change vs veh, TAOK1 / RFU, ACBD3 / Fold change vs veh, ACBD3 / RFU, TMA16 / Fold change vs veh, TMA16 / RFU, RWDD3 / Fold change vs veh, RWDD3 / RFU, BCAT1 / Fold change vs veh, BCAT1 / RFU, EDEM3 / Fold change vs veh, EDEM3 / RFU, TMEM33 / Fold change vs veh, TMEM33 / RFU, WDR75 / Fold change vs veh, WDR75 / RFU, AHCTF1 / Fold change vs veh, AHCTF1 / RFU, TFRC / Fold change vs veh, TFRC / RFU, ZDHHC17 / Fold change vs veh, ZDHHC17 / RFU, NOM1 / Fold change vs veh, NOM1 / RFU, ARL8B / Fold change vs veh, ARL8B / RFU, ZBTB11 / Fold change vs veh, ZBTB11 / RFU, TAMM41 / Fold change vs veh, TAMM41 / RFU, KIAA1704 /// LOC100996395 / Fold change vs veh, KIAA1704 /// LOC100996395 / RFU, ING1 / Fold change vs veh, ING1 / RFU, TRMT61B / Fold change vs veh, TRMT61B / RFU, FUBP3 / Fold change vs veh, FUBP3 / RFU, TP53 / Fold change vs veh, TP53 / RFU, TNKS2 / Fold change vs veh, TNKS2 / RFU, ZFP14 / Fold change vs veh, ZFP14 / RFU, ACTR2 / Fold change vs veh, ACTR2 / RFU, PPP3R1 / Fold change vs veh, PPP3R1 / RFU, PIK3R1 / Fold change vs veh, PIK3R1 / RFU, HNRNPA1 / Fold change vs veh, HNRNPA1 / RFU, RNF170 / Fold change vs veh, RNF170 / RFU, ZNF28 / Fold change vs veh, ZNF28 / RFU, RNGTT / Fold change vs veh, RNGTT / RFU, OGT / Fold change vs veh, OGT / RFU, BRD1 / Fold change vs veh, BRD1 / RFU, MARS / Fold change vs veh, MARS / RFU, ZNF655 / Fold change vs veh, ZNF655 / RFU, FAHD1 / Fold change vs veh, FAHD1 / RFU, BDP1 / Fold change vs veh, BDP1 / RFU, LRRCC1 / Fold change vs veh, LRRCC1 / RFU, ARID1A / Fold change vs veh, ARID1A / RFU, ZNF146 / Fold change vs veh, ZNF146 / RFU, ZNF330 / Fold change vs veh, ZNF330 / RFU, GPN3 / Fold change vs veh, GPN3 / RFU, C9orf123 / Fold change vs veh, C9orf123 / RFU, N4BP2L2 / Fold change vs veh, N4BP2L2 / RFU, ARFIP1 / Fold change vs veh, ARFIP1 / RFU, FAM179B / Fold change vs veh, FAM179B / RFU, BCL10 / Fold change vs veh, BCL10 / RFU, UHRF1BP1L / Fold change vs veh, UHRF1BP1L / RFU, BET1 / Fold change vs veh, BET1 / RFU, CNOT2 / Fold change vs veh, CNOT2 / RFU, ZNF268 / Fold change vs veh, ZNF268 / Fold change vs veh, ZNF507 / RFU, DGCR2 / Fold change vs veh, DGCR2 / RFU, WDSUB1 / Fold change vs veh, WDSUB1 / Fold change vs veh, HSP90B1 /// MIR3652 / RFU, ADSS / Fold change vs veh, ADSS / RFU, GK / Fold change vs veh, GK / RFU, ZNF148 / Fold change vs veh, ZNF148 / RFU, TAF9 / Fold change vs veh, TAF9 / RFU, SLC1A5 / Fold change vs veh, SLC1A5 / RFU, SLMO2 / Fold change vs veh, SLMO2 / RFU, ABCC4 / Fold change vs veh, ABCC4 / RFU, LOC101060439 /// RAP1B / Fold change vs veh, LOC101060439 /// RAP1B / RFU, RFX7 / Fold change vs veh, RFX7 / RFU, GTPBP10 / Fold change vs veh, GTPBP10 / RFU, CNEP1R1 / Fold change vs veh, CNEP1R1 / RFU, BIVM-ERCC5 /// ERCC5 / Fold change vs veh, BIVM-ERCC5 /// ERCC5 / RFU, ILF3 / Fold change vs veh, ILF3 / RFU 11762660_at / Fold change /veh 11762660_at / RFU VCAN (11757783_s_at) / Fold change /veh VCAN (11757783_s_at) / RFU DDX43 (11728927_at) / Fold change /veh DDX43 (11728927_at) / RFU KRT8 (11758188_x_at) / Fold change /veh KRT8 (11758188_x_at) / RFU NKD1 (11759106_at) / Fold change /veh NKD1 (11759106_at) / RFU SRD5A1 (11742802_a_at) / Fold change /veh SRD5A1 (11742802_a_at) / RFU TPSAB1 /// TPSB2 (11721975_s_at) / Fold change /veh TPSAB1 /// TPSB2 (11721975_s_at) / RFU GSTM3 (11746129_a_at) / Fold change /veh GSTM3 (11746129_a_at) / RFU IL23R (11737362_x_at) / Fold change /veh IL23R (11737362_x_at) / RFU TMEM51 (11727254_a_at) / Fold change /veh TMEM51 (11727254_a_at) / RFU PIWIL2 (11732686_x_at) / Fold change /veh PIWIL2 (11732686_x_at) / RFU ORM1 (11744905_x_at) / Fold change /veh ORM1 (11744905_x_at) / RFU CCDC152 (11743942_at) / Fold change /veh CCDC152 (11743942_at) / RFU ECM1 (11717891_a_at) / Fold change /veh ECM1 (11717891_a_at) / RFU IL23R (11748794_a_at) / Fold change /veh IL23R (11748794_a_at) / RFU TNFAIP8L3 (11732012_x_at) / Fold change /veh TNFAIP8L3 (11732012_x_at) / RFU MBOAT4 (11741988_at) / Fold change /veh MBOAT4 (11741988_at) / RFU 11764193_at / Fold change /veh 11764193_at / RFU TMEM53 (11763286_at) / Fold change /veh TMEM53 (11763286_at) / RFU MAGEB2 (11727129_at) / Fold change /veh MAGEB2 (11727129_at) / RFU TMEM200A (11744735_a_at) / Fold change /veh TMEM200A (11744735_a_at) / RFU CCDC152 (11751479_a_at) / Fold change /veh CCDC152 (11751479_a_at) / RFU FAM211A (11726209_a_at) / Fold change /veh FAM211A (11726209_a_at) / RFU RGS16 (11746705_a_at) / Fold change /veh RGS16 (11746705_a_at) / RFU VCAN (11755009_s_at) / Fold change /veh VCAN (11755009_s_at) / RFU RHOB (11743442_s_at) / Fold change /veh RHOB (11743442_s_at) / RFU RGS16 (11720943_a_at) / Fold change /veh RGS16 (11720943_a_at) / RFU RGS16 (11720944_at) / Fold change /veh RGS16 (11720944_at) / RFU, VPS4B / Fold change vs veh, VPS4B / RFU, CREB1 / Fold change vs veh, CREB1 / RFU, DNAJC13 / Fold change vs veh, DNAJC13 / RFU, GNAQ / Fold change vs veh, GNAQ / RFU, CDK5R1 / Fold change vs veh, CDK5R1 / RFU, ZRANB3 / Fold change vs veh, ZRANB3 / RFU, CUL4A / Fold change vs veh, CUL4A / RFU, CCNY / Fold change vs veh, CCNY / RFU, UFL1 / Fold change vs veh, UFL1 / RFU, COG3 / Fold change vs veh, COG3 / RFU, DIAPH2 / Fold change vs veh, DIAPH2 / RFU, SKA2 / Fold change vs veh, SKA2 / RFU, AFF3 / Fold change vs veh, AFF3 / RFU, LMF1 / Fold change vs veh, LMF1 / RFU, IPO11 / Fold change vs veh, IPO11 / RFU, DFFB / Fold change vs veh, DFFB / RFU, FOXP1 / Fold change vs veh, FOXP1 / RFU, CARD8 / Fold change vs veh, CARD8 / RFU, STRN3 / Fold change vs veh, STRN3 / RFU, ADK / Fold change vs veh, ADK / RFU, RASSF2 / Fold change vs veh, RASSF2 / RFU, WIPF1 / Fold change vs veh, WIPF1 / RFU, LARP1B / Fold change vs veh, LARP1B / RFU, RASA1 / Fold change vs veh, RASA1 / RFU, RB1 / Fold change vs veh, RB1 / RFU, PPFIA1 / Fold change vs veh, PPFIA1 / RFU, MAT2A / Fold change vs veh, MAT2A / RFU, CCT5 / Fold change vs veh, CCT5 / RFU, WDR92 / Fold change vs veh, WDR92 / RFU, CUX1 / Fold change vs veh, CUX1 / RFU, TTC7A / Fold change vs veh, TTC7A / RFU, TMEM135 / Fold change vs veh, TMEM135 / RFU, DEPTOR / Fold change vs veh, DEPTOR / RFU, CPM / Fold change vs veh, CPM / RFU, DNAJB6 / Fold change vs veh, DNAJB6 / RFU, CACNA2D3 / Fold change vs veh, CACNA2D3 / RFU, DTX4 / Fold change vs veh, DTX4 / RFU, TFCP2 / Fold change vs veh, TFCP2 / RFU, GMCL1 /// GMCL1P1 / Fold change vs veh, GMCL1 /// GMCL1P1 / RFU, AEBP2 / Fold change vs veh, AEBP2 / RFU, SNHG1 /// SNORD22 /// SNORD25 /// SNORD26 /// SNORD27 /// SNORD28 /// SNORD29 /// SNORD31 / Fold change vs veh, SNHG1 /// SNORD22 /// SNORD25 /// SNORD26 /// SNORD27 /// SNORD28 /// SNORD29 /// SNORD31 / Fold change (Aza/veh), C12orf56 (ProbeSet 11735607_a_at) / Fold change (ACY-1035/veh), C12orf56 (ProbeSet 11735607_a_at) / Fold change (Aza/veh), FGFR1OP (ProbeSet 11751329_s_at) / Fold change (ACY-1035/veh), FGFR1OP (ProbeSet 11751329_s_at) / Fold change (Aza/veh), VPS36 (ProbeSet 11739960_a_at) / Fold change (ACY-1035/veh), VPS36 (ProbeSet 11739960_a_at) / RFU SYPL1 (11715823_x_at) / Fold change /veh SYPL1 (11715823_x_at) / RFU IGFBP7 (11715501_s_at) / Fold change /veh IGFBP7 (11715501_s_at) / RFU REEP3 (11722064_at) / Fold change /veh REEP3 (11722064_at) / RFU IGLL1 (11728026_x_at) / Fold change /veh IGLL1 (11728026_x_at): dose or concentration left out as unconfirmed
# Conditions: ProbeSet 11729384_s_at; LIST D
structure (smiles),measurement,value
Nc1ccc(-c2cccs2)cc1NC(=O)c1ccc2c(c1)cc(C1CC1)n2CCN1CCOCC1 [ACY-1035],"RFU, CCNY",178.51 RFU
